Results reported in PubChem BioAssay (NCI).
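Interpolation was linear, between the two tested concentrations surrounding the appropriate level; five concentrations were tested over 48 hours in 96-well plates. At the GI50, growth is halved. TGI: concentration producing complete growth inhibition.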

What was measured:
Experiment in all cases: growth of human tumour cells (NCI), 48 h
786-0 renal = system: 786-0 renal
COLO 205 colon = system: COLO 205 colon
DU-145 prostate = system: DU-145 prostate
HCT-116 colon = system: HCT-116 colon
NCI/ADR-RES ovarian = system: NCI/ADR-RES ovarian
HOP-62 NSCLC = system: HOP-62 NSCLC
SNB-75 CNS = system: SNB-75 CNS
HL-60(TB) leukemia = system: HL-60(TB) leukemia
UO-31 renal = system: UO-31 renal
OVCAR-4 ovarian = system: OVCAR-4 ovarian
SK-MEL-5 melanoma = system: SK-MEL-5 melanoma
HS 578T breast = system: HS 578T breast
OVCAR-3 ovarian = system: OVCAR-3 ovarian
HCC-2998 colon = system: HCC-2998 colon
EKVX NSCLC = system: EKVX NSCLC
MDA-MB-231 breast = system: MDA-MB-231 breast
CAKI-1 renal = system: CAKI-1 renal
NCI-H460 lung = system: NCI-H460 lung
UACC-257 melanoma = system: UACC-257 melanoma
CCRF-CEM leukemia = system: CCRF-CEM leukemia
HOP-92 NSCLC = system: HOP-92 NSCLC
HT29 colon = system: HT29 colon
SF-539 CNS = system: SF-539 CNS
NCI-H522 lung = system: NCI-H522 lung
OVCAR-5 ovarian = system: OVCAR-5 ovarian
MCF7 breast = system: MCF7 breast
KM12 colon = system: KM12 colon
A498 renal = system: A498 renal

SMILES: COc1c(Cl)c2c(c(OC)c1OC)-c1ccc(SC)c(=O)cc1[C@@H](NC(=O)OCC(F)(F)F)CC2
- GI50 (786-0 renal): < 10 nM
- TGI (786-0 renal): > 30400 nM
- GI50 (COLO 205 colon): < 10 nM
- TGI (COLO 205 colon): 31.4 nM
- GI50 (DU-145 prostate): < 10 nM
- TGI (DU-145 prostate): 871 nM
- GI50 (HCT-116 colon): < 10 nM
- TGI (HCT-116 colon): 218 nM
- GI50 (NCI/ADR-RES ovarian): 18.2 nM
- GI50 (HOP-62 NSCLC): < 10 nM
- TGI (HOP-62 NSCLC): > 100000 nM
- GI50 (SNB-75 CNS): < 10 nM
- TGI (SNB-75 CNS): > 100000 nM
- GI50 (HL-60(TB) leukemia): < 10 nM
- TGI (HL-60(TB) leukemia): < 10 nM
- TGI (UO-31 renal): > 61900 nM
- GI50 (OVCAR-4 ovarian): 88.9 nM
- TGI (OVCAR-4 ovarian): > 100000 nM
- GI50 (SK-MEL-5 melanoma): < 10 nM
- TGI (SK-MEL-5 melanoma): 18.4 nM
- GI50 (HS 578T breast): < 10 nM
- TGI (HS 578T breast): > 100000 nM
- GI50 (OVCAR-3 ovarian): < 10 nM
- TGI (OVCAR-3 ovarian): < 10 nM
- GI50 (HCC-2998 colon): < 10 nM
- TGI (HCC-2998 colon): 3990 nM
- GI50 (EKVX NSCLC): < 10 nM
- TGI (EKVX NSCLC): > 100000 nM
- GI50 (MDA-MB-231 breast): < 10 nM
- TGI (MDA-MB-231 breast): 3240 nM
- GI50 (CAKI-1 renal): < 22.7 nM
- TGI (CAKI-1 renal): > 56800 nM
- GI50 (NCI-H460 lung): < 10 nM
- TGI (NCI-H460 lung): 10200 nM
- GI50 (UACC-257 melanoma): 9610 nM
- TGI (UACC-257 melanoma): > 100000 nM
- GI50 (CCRF-CEM leukemia): < 10 nM
- TGI (CCRF-CEM leukemia): > 100000 nM
- GI50 (HOP-92 NSCLC): < 17.9 nM
- TGI (HOP-92 NSCLC): 7030 nM
- GI50 (HT29 colon): < 10 nM
- TGI (HT29 colon): 23800 nM
- GI50 (SF-539 CNS): < 10 nM
- TGI (SF-539 CNS): < 10 nM
- GI50 (NCI-H522 lung): < 10 nM
- TGI (NCI-H522 lung): 3460 nM
- GI50 (OVCAR-5 ovarian): < 10 nM
- TGI (OVCAR-5 ovarian): > 100000 nM
- GI50 (MCF7 breast): < 10 nM
- TGI (MCF7 breast): > 100000 nM
- GI50 (KM12 colon): < 10 nM
- TGI (KM12 colon): 4260 nM
- GI50 (A498 renal): < 10 nM
- TGI (A498 renal): < 10 nM
